This note sets out measurements from PMC11985661 (Naunyn-Schmiedeberg's Archives of Pharmacology, 2024).

Like-named read-outs stand apart in the source and are kept apart here.

Assay [1] relates to MCF-7. As to the kind of experiment: MTT cytotoxicity assay. Type of assay: cell-based. The settings on record: Homo sapiens, read-out: IC50 MCF-7. The procedure: (§1) Numerous cancer cell lines were procured from the American Type Culture Collection (ATCC) situated in Manassas, USA. […] The culture medium was supplemented with penicillin (100 units/mL), streptomycin ([…]), and heat-inactivated fetal bovine serum (10%). The cultivation of these cancer cells was carried out in a humidified atmosphere with 5% (v/v) CO2 at a temperature of 37 °C.
(§2) The 3-[4,5-dimethylthiazole-2-yl]-2,5-diphenyltetrazolium bromide (MTT) assay was used to evaluate the cytotoxicity of different substances or treatments. A commonly used approach for assessing the viability and proliferation of cells, including the cancer cell lines described, is colorimetric analysis.
(§3) Actively proliferating cells from different cancer cell lines were first trypsinized and quantified. […] These seeded cells were incubated in a humidified environment at 37 °C for 24 h to allow for cell attachment and acclimation.
(§4) Following the initial incubation, the cells were subjected to different doses of the chemicals under investigation, ranging from 0.1 to 1000 μM, for a duration of 72 h. The MTT assay was used to evaluate the treated cells’ vitality. Specifically, the culture media were removed, and the cells were incubated with 200 μl of 5% MTT solution per well.
(§5) Due to this, the MTT dye was metabolized by the living cells over the course of 2 h, forming colorful, insoluble formazan crystals.
(§6) This allowed the viable cells to metabolize the MTT dye into colored, insoluble formazan crystals over a 2-h period. After this incubation, the formazan crystals were dissolved in 200 μl of acidified isopropanol per well for 30 min after the residual MTT solution was withdrawn. This dissolution step was carried out at room temperature with a MaxQ 2000 plate shaker, covered with aluminum foil and continuously shaking.
(§7) The absorbance of the dissolved formazan crystals was measured at 570 nm through the use of Stat FaxR 4200 plate reader.

In assay [2] the test system is HCT116. As to the kind of experiment: MTT cytotoxicity assay. The conditions noted are these: Homo sapiens, HCT-116, 72 h, mean of three separate experiments. Format: cell-based. The procedure: as §1, §2, §3, §4, §5, §6, §7
In assay [3] the test system is A549. As to the kind of experiment: MTT cytotoxicity assay. Format: cell-based. The settings on record: Homo sapiens, 72 h, mean of three separate experiments. The procedure:
as §1, §2, §3, §4, §5, §6, §7

Assay [4] concerns HepG2. The assay is described as follows: MTT cytotoxicity assay. Type of assay: cell-based. The settings on record: Homo sapiens, read-out: IC50 HepG2. The procedure: as §1, §2, §3, §4, §5, §6, §7
Assay [5] concerns the target T1, VEGFR-2 (Homo sapiens, UniProt P35968).
T1 construct: purchased Millipore, UK
The assay is described as follows: In vitro VEGFR-2 kinase assay (Alpha Screen, anti-phosphotyrosine antibody). Type of assay: biochemical. The conditions noted are these: mean of three separate experiments.
Procedure: Analyzing the assay of VEGFR-2 kinase involved utilizing the Alpha Screen system (PerkinElmer, USA) and an anti-phosphotyrosine antibody in accordance with the manufacturer’s protocol. A solution containing 50 mM Tris–HCl (pH 7.5), 5 mM MnCl2, 5 mM MgCl2, 0.01% Tween-20, and 2 mM DTT was used to conduct the enzyme reactions. A total of 10 μM ATP, 0.1 μg/mL of biotinylated poly-GluTyr (in a 4:1 ratio), and 0.1 nM of VEGFR-2 (Millipore, UK) were all added in the reaction mixture.
After an overnight dark incubation, the plate was read using an ELISA Reader (PerkinElmer, USA). The baseline control was represented by wells with biotinylated poly-GluTyr (4:1) and the enzyme but without ATP, and the reaction control was provided by wells with the substrate and the enzyme but not the tested compounds.
The percentage inhibition was computed by comparing contrasting the compound-treated samples with the control incubations.

In assay [6] the target is T2, EGFR^T790M (Homo sapiens, UniProt P00533, T790M).
T2 construct: purchased Sigma
T2 sequence (P00533 25-1210 T790M): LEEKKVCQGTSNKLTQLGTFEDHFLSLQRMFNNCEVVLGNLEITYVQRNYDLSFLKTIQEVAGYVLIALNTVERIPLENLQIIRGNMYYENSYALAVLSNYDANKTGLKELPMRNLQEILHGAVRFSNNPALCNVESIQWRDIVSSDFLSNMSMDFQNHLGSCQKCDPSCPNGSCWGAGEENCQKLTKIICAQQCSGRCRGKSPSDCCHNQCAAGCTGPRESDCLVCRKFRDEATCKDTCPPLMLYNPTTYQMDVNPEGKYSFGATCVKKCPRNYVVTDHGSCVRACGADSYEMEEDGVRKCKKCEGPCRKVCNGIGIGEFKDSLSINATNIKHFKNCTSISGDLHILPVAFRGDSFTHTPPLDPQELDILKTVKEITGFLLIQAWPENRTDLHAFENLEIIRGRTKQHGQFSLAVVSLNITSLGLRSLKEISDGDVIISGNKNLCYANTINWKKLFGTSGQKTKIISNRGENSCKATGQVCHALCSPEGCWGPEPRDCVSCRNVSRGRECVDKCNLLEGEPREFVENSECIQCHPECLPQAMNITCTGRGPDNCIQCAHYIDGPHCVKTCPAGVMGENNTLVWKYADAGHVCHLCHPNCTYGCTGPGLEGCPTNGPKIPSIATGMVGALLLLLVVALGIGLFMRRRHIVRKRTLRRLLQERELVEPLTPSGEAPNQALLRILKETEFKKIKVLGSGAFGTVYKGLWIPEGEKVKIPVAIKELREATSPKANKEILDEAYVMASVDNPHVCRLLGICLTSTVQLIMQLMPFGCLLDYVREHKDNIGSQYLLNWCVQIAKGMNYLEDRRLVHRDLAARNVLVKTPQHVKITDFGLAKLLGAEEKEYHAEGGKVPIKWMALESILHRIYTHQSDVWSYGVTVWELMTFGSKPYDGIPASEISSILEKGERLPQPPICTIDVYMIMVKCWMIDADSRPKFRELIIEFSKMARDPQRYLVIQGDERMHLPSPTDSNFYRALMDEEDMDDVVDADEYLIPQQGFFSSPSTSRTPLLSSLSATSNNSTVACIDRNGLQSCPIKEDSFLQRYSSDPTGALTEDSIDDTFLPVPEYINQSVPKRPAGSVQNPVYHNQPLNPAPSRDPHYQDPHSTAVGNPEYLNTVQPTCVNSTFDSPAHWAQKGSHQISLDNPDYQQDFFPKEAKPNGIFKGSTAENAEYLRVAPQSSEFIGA
The assay is described as follows: EGFR^T790M kinase inhibition assay (HTRF). Format: biochemical. The conditions noted are these: mean of three separate experiments.
Procedure: The study utilized the homogeneous time resolved fluorescence (HTRF) assay to evaluate the kinase activity of EGFR^T790M mutant. The EGFR^T790M enzyme and ATP were obtained from Sigma. Initially, the tested chemical was first incubated for 5 min with the EGFR^T790M enzyme and its substrates in an enzymatic buffer. This pre-incubation step allowed the compound to interact with the enzyme before the catalytic reaction was initiated. […] The assay was carried out at room temperature for 30 min. The samples were mixed with detection reagents containing EDTA to stop the enzymatic process. The detection phase was allowed to proceed for 1 h. By utilizing GraphPad Prism 5.0 software, the inhibitory potency of the tested compounds was determined by calculating the half-maximal inhibitory concentration (IC50) values. Three independent measurements were done to determine the concentration of each compound.

T1 sequence (P35968 20-1356): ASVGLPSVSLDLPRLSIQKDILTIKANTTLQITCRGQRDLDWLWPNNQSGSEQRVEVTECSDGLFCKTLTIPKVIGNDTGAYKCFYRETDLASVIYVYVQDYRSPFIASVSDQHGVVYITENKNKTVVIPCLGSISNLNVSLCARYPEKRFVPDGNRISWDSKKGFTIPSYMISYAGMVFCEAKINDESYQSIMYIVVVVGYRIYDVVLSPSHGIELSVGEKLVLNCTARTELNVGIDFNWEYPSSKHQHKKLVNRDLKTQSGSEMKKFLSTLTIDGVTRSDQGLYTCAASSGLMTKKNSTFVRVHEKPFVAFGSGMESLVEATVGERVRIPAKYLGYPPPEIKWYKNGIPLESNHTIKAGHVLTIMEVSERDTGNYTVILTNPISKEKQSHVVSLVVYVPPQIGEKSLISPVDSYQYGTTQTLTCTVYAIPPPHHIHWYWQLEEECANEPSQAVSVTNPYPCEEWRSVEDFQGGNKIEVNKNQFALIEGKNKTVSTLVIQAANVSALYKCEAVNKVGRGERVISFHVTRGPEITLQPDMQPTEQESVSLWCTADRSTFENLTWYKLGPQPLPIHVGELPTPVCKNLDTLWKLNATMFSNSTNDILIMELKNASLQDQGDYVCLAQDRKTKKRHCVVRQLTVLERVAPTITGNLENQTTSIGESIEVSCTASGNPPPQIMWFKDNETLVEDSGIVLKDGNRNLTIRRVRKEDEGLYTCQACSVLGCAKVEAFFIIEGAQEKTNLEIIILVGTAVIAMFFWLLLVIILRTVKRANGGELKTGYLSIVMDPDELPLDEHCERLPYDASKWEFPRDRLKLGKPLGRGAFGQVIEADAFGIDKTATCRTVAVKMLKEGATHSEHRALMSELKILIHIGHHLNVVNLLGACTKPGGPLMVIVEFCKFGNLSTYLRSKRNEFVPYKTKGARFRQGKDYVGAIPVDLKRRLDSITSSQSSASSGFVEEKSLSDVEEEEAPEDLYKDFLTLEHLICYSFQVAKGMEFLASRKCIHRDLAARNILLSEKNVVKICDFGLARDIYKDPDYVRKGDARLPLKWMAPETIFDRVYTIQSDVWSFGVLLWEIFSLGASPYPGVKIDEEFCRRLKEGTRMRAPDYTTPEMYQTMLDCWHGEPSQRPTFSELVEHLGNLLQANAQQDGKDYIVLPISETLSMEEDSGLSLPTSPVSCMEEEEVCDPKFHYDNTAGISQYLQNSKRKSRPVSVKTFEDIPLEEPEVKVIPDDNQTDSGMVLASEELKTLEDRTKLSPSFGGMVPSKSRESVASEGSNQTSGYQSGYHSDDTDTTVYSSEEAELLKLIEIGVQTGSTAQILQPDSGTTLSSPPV

Turning to `C#Cc1cccc(Nc2ncnc3cc(OCCOC)c(OCCOC)cc23)c1` [Erlotinib], the half-inhibitory concentration (IC50) in assay [1] (MCF7, 72 h) amounted to 8.2 µM.

Consider `C[C@@H]1O[C@@H](OC[C@H]2O[C@@H](Oc3c(-c4ccc(O)c(O)c4)oc4cc(O)cc(O)c4c3=O)[C@H](O)[C@@H](O)[C@@H]2O)[C@H](O)[C@H](O)[C@H]1O` [Rutin (3), rutin], for which the half-inhibitory concentration (IC50) in assay [1] (MCF7, MTT, 72 h, mean of three separate experiments) was 12.3 µM; in assay [2] it was 15.6 µM; in assay [3], 8.71 µM; in assay [4] (HepG2, MTT, 72 h, mean of three separate experiments) it was 14.9 µM; in assay [5], 1.18 µM; in assay [6], 0.66 µM.

For the compound `CNC(=O)c1cc(Oc2ccc(NC(=O)Nc3ccc(Cl)c(C(F)(F)F)c3)cc2)ccn1` [Sorafenib], the IC50 in assay [4] (HepG2, 72 h) was found to be 4 µM.
